Several values for one entry are separate records, joined by “and”; a condition that tells them apart may be missing. Equal entries are not always repeated.
Target: H+,K+-ATPase (Sus scrofa, UniProt P19156)
Assay: Dose-dependent inhibition of H+,K+-ATPase activity, membrane fractions
Conditions: for H+,K+-ATPase activity, raw data of dose-dependent inhibition: single replicate values
[1] = [PCAB] -3.30103 (log, unit not given)
[2] = [PCAB] -3.52288 (log, unit not given)
[3] = [PCAB] -4 (log, unit not given)
[4] = [PCAB] -4.30103 (log, unit not given)
[5] = [PCAB] -4.52288 (log, unit not given)
[6] = [PCAB] -5 (log, unit not given)
[7] = [PCAB] -5.52288 (log, unit not given)
[8] = [PCAB] -6 (log, unit not given)
[9] = [PCAB] -6.30103 (log, unit not given)
[10] = [PCAB] -7 (log, unit not given)
[11] = [PCAB] -8 (log, unit not given)
[12] = [PCAB] -11 (log, unit not given; possibly placeholder for no compound)

Sequence of H+,K+-ATPase (P19156 2-1034 limits assumed): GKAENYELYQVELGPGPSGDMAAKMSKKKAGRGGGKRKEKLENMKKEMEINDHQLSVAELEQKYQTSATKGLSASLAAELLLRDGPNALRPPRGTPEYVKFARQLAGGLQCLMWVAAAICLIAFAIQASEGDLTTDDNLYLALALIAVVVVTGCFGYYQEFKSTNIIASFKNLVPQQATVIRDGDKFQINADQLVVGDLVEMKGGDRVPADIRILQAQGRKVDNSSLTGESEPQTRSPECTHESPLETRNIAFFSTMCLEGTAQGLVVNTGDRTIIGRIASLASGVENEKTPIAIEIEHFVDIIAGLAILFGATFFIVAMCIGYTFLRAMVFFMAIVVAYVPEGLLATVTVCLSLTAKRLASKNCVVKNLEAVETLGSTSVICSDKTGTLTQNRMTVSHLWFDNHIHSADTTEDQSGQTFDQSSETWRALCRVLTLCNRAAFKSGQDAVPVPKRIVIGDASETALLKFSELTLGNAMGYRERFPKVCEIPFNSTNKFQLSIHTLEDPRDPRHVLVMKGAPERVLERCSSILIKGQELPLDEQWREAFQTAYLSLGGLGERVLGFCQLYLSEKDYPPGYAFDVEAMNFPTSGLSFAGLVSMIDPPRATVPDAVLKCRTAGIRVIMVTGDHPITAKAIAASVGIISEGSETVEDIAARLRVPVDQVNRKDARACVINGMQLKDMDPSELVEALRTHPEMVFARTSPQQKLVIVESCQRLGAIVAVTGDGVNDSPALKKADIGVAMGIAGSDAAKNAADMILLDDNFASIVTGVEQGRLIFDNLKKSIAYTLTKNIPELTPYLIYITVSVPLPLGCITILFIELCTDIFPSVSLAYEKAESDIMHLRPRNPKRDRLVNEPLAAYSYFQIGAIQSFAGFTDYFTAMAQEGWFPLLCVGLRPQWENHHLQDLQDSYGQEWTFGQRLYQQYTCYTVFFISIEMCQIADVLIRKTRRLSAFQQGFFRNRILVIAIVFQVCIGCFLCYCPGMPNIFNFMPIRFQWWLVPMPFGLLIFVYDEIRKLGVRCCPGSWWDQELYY
Sequence of H+,K+-ATPase (P18434 whole entry partner): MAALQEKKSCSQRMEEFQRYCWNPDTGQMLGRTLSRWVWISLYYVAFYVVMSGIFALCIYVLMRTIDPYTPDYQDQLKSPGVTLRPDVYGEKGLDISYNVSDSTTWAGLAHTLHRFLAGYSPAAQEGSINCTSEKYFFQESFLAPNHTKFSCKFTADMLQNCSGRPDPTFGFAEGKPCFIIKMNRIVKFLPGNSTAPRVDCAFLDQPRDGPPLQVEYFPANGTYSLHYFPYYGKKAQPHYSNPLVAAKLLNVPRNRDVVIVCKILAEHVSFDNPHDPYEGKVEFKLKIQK

Compound | IC50 [µM] | H+,K+-ATPase activity, raw data of dose-dependent inhibition [1] | H+,K+-ATPase activity, raw data of dose-dependent inhibition [2] | H+,K+-ATPase activity, raw data of dose-dependent inhibition [3] | H+,K+-ATPase activity, raw data of dose-dependent inhibition [4] | H+,K+-ATPase activity, raw data of dose-dependent inhibition [5] | H+,K+-ATPase activity, raw data of dose-dependent inhibition [6] | H+,K+-ATPase activity, raw data of dose-dependent inhibition [7] | H+,K+-ATPase activity, raw data of dose-dependent inhibition [8] | H+,K+-ATPase activity, raw data of dose-dependent inhibition [9] | H+,K+-ATPase activity, raw data of dose-dependent inhibition [10] | H+,K+-ATPase activity, raw data of dose-dependent inhibition [11] | H+,K+-ATPase activity, raw data of dose-dependent inhibition [12]
CNCC#CCn1ccc2cccc(C#Cc3ccc(C)cc3)c21 [DQ-15] | 49.5 ± 4.9 | -1.23 and -0.26 and -1.44 and 5.07 and -1.8 and 2.8 | 9.09 and 3.72 and 0.29 and -0.76 and -0.99 and -0.84 | 11.93 and 13.25 and 13.98 and 12.44 and 11.99 | 53.33 and 67.11 and 32 and 29.38 and 36.06 and 36.79 | 62.91 and 87.02 and 102.29 and 102.11 and 98.15 and 100.59 | 104.78 and 109.76 and 109.66 and 114.82 and 111.02 and 110.28 | 106.28 and 113.44 and 111.13 and 112.65 and 113.7 and 115.05 | 99.17 and 105.14 and 103.4 and 101.49 and 105.23 and 103.02 | 96.59 and 101.3 and 102.53 and 104.37 and 103.52 and 105.02 | 93.78 and 100.85 and 99.97 and 100.06 and 104.3 and 100.32 | 98.75 and 101.8 and 99.85 and 100.74 and 97.88 and 98.55 | 102.57 and 105.77 and 99.66 and 98.21 and 98.11 and 102.51
OCc1ccc(OCc2ccccc2OCc2ccccc2)cc1 [DQ-10] | 292 ± 67 | 43.38 and 44.41 and 45.92 and 45.13 and 45.42 and 45.93 | 45.74 and 44.58 and 47.45 and 47.39 and 47.18 and 50.77 | 56.05 and 53.52 and 55.98 and 54.18 and 54.88 and 57.9 | 76.31 and 75.72 and 105.39 and 105.73 and 101.62 and 104.74 | 93.17 and 93.5 and 97.58 and 97.31 and 105.67 and 98.13 | 105.05 and 103.17 and 107.45 and 104.86 and 105.64 and 102 | 97.45 and 97.17 and 101.99 and 103.63 and 102.59 and 100.01 | 100.27 and 101.99 and 106.56 and 102.96 and 101.68 and 100.85 | 96.05 and 88 and 94.05 and 95.4 and 97.95 and 97.13 | 93.18 and 94.04 and 98.08 and 97.4 and 96.62 and 95.63 | 97.94 and 95.96 and 97.5 and 99.04 and 99.69 and 102.43 | 97.84 and 98.7 and 100.06 and 101.42 and 100.78 and 96
CNCc1ccc(OCc2ccccc2OCc2ccc(Cl)cc2)cc1 [DQ-21] | 0.28 ± 0.02 | -1.36 and -1 and -1.49 and 3.72 and -1.45 and 1.58 | 0.39 and 0.54 and 0.08 and 0.18 and 0.41 and 0.55 | 3.33 and 3.13 and 3.68 and 3.03 and 3.2 and 3.37 | 4.45 and 4.77 and 4.44 and 4.84 and 4.43 and 4.67 | 6.47 and 6.44 and 6.31 and 6.43 and 6.29 and 6.56 | 7.76 and 7.75 and 7.99 (2×) and 7.89 and 7.77 | 11.96 and 12.26 and 11.83 and 11.89 and 11.45 and 12.14 | 23.55 and 22.68 and 22.58 and 21.83 and 22.75 and 23.52 | 36.33 and 33.31 and 34.67 and 35.15 and 34.9 and 34.74 | 76.22 and 75.51 and 71.53 and 74.65 and 69.37 | 101.03 and 99.43 and 98.88 and 100.2 and 98.66 and 98.58 | 102.52 and 101.98 and 100.28 and 101.48 and 100.07 and 102.84
CN(C)Cc1ccc(OCc2ccccc2OCc2ccccc2)cc1 [DQ-11] | 5.57 ± 0.45 | -9.05 and -9.17 and -0.38 and -0.55 and 0.75 and 0.18 | -7.01 and -7.07 and 0.86 and 1.01 and 0.22 and 0.76 | 0.73 and 0.95 and 7.54 and 7.57 and 6.64 and 7.22 | 5.75 and 5.69 and 7.96 (2×) and 7.99 and 7.73 | 10.92 and 10.91 and 16.8 and 13.24 and 16.06 and 16.58 | 34.05 and 32.3 and 39.91 and 37.9 and 37.76 and 40.04 | 63.88 and 61.74 and 70.3 and 67.49 and 63.1 and 68.35 | 89.53 and 87.88 and 83.74 and 79.92 and 83.72 and 84.81 | 90.62 and 87.46 and 94.24 and 93.36 and 93.48 and 92.73 | 95.63 and 90.8 and 99.34 and 102.28 and 88.88 and 100.71 | 97.6 and 94.94 and 102 and 102.29 and 100.82 and 103.84 | 102.26 and 95.06 and 98.26 and 100.19 and 96.56 and 106.72

— paper PMC10509173, “Deep learning driven de novo drug design based on gastric proton pump structures” (Communications Biology, 2023)
